Key:
GABA-B = GABA-B (Homo sapiens, UniProt Q9UBS5); assay: Receptor profile, GABA-B; format: biochemical
GABA-C = assay: Receptor profile, GABA-C; format: biochemical

GABA-B, sequence (Q9UBS5 15-961 limits assumed): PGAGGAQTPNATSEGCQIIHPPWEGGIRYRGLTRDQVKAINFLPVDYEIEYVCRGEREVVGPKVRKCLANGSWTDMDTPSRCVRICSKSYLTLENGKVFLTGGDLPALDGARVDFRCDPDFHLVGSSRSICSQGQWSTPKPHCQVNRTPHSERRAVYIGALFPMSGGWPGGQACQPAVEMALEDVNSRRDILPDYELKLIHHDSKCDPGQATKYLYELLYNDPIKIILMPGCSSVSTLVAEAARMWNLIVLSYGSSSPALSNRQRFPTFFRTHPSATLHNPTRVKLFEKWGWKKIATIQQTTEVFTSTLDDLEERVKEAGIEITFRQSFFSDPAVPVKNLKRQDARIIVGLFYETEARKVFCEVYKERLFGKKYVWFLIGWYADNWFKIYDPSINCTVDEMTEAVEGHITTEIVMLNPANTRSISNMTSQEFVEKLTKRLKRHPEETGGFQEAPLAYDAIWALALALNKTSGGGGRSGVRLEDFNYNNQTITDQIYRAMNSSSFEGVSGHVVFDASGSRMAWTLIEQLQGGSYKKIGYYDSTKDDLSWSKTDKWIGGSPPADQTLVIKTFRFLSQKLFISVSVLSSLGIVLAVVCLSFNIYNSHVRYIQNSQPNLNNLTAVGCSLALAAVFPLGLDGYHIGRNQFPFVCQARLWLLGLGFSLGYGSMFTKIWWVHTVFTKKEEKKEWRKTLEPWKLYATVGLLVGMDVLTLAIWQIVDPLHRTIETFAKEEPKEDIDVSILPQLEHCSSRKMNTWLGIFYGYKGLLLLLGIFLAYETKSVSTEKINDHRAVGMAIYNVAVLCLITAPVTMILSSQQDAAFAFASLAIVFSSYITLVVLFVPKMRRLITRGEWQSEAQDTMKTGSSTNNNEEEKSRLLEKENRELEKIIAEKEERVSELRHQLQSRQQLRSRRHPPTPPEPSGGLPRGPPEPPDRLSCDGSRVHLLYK
GABA-B, sequence (O75899 42-941 partner): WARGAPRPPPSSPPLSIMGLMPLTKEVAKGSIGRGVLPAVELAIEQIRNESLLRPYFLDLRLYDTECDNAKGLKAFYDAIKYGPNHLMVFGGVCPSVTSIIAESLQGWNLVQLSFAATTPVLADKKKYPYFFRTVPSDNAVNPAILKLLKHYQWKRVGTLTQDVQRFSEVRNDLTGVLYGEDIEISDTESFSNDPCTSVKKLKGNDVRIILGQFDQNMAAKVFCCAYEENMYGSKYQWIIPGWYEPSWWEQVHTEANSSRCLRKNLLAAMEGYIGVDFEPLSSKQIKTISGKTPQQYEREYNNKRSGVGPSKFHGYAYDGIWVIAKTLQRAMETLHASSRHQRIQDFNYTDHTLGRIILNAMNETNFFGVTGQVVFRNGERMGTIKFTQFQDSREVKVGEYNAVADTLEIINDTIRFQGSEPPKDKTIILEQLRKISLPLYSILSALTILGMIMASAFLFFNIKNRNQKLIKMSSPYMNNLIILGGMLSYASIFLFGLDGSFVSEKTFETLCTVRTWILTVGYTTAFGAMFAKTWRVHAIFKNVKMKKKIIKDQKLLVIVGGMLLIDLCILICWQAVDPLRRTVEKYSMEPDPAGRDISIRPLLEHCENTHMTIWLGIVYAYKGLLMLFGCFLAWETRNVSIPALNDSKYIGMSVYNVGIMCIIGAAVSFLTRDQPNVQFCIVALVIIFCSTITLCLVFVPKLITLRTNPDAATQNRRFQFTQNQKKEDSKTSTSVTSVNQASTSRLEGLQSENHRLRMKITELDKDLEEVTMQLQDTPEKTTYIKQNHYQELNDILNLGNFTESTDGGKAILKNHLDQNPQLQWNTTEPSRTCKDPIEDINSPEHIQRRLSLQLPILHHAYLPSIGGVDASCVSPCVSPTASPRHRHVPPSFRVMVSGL

With `CP(=O)(O)C1=CCNCC1` [TPMPA] the “GABA-B mode of action (agonist/antagonist)” value (GABA-B) was “agonist” and the “GABA-C mode of action (agonist/antagonist)” value (GABA-C) was “antagonist”.
